Patent US20250326769A1, “HETEROAROMATIC MACROCYCLIC ETHER CHEMOTHERAPEUTIC AGENTS” (Nuvalent, Inc., priority 2022, published 2025)

What was measured:
[1] = target: Ba/F3 EML4-ALK v1 I1171N/D1203N (Homo sapiens (Human), UniProt Q9HC35+Q9UM73, D1203N/I1171N); assay: Ba/F3 cell proliferation assay, EML4-ALK v1 I1171N/D1203N; format: cell-based; conditions: for IC50: Ba/F3 stable cells, 72 hours, CellTiter-Glo; for ETV6-TRKB / EML4-ALK v1 I1171N/D1203N / Selectivity for Ba/F3 EML4-ALK v1 I1171N-D1203N IC50 over Ba/F3 ETV6-TRKB IC50: TRKB selectivity, ratio of Ba/F3 IC50 values; for Selectivity for Ba/F3 EML4-ALK v1 I1171N-D1203N IC50 over Ba/F3 ETV6-TRKB IC50: Table 6 bins
Chain of Ba/F3 EML4-ALK v1 I1171N/D1203N (Q9UM73 other isoform, or with tags, fused parts or gaps I1171N/D1203N): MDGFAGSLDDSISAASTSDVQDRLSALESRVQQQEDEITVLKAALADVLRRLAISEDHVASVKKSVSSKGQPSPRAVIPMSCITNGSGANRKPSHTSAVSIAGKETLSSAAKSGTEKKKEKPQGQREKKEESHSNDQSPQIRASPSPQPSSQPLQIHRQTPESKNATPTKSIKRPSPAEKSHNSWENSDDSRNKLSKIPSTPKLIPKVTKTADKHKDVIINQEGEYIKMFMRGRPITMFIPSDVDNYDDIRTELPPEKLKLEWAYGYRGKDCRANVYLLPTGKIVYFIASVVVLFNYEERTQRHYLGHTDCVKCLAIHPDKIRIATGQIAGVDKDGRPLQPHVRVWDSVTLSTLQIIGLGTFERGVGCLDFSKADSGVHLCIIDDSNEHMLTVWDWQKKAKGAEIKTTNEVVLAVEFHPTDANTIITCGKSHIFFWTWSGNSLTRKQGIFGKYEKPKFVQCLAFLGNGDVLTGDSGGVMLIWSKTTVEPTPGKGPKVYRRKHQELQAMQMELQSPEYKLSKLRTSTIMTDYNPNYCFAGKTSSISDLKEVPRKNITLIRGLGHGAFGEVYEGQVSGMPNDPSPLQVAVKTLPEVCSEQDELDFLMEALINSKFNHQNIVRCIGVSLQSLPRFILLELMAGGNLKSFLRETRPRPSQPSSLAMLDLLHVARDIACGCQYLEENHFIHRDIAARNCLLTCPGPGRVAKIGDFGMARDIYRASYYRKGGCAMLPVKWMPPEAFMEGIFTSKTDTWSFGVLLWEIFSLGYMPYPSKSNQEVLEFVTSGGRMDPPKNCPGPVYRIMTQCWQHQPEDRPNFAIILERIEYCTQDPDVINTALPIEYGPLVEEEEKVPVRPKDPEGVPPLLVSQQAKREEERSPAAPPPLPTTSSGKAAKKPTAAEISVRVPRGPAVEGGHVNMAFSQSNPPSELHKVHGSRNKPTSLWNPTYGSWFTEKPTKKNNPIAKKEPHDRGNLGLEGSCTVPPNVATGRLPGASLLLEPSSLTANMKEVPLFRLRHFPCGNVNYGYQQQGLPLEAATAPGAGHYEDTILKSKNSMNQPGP
Summary of the method: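 Ba/F3 cells made IL-3-independent by retroviral EML4-ALK v1 I1171N/D1203N and selected with puromycin, then treated with 3-fold compound dilutions for 72 h. Viability by CellTiter-Glo luminescence; IC50 from four-parameter logistic fit.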

[2] = target: Ba/F3 ETV6-TRKB (Homo sapiens, UniProt Q16620); assay: Ba/F3 cell proliferation assay, ETV6-TRKB; format: cell-based; conditions: Ba/F3 stable cells, 72 hours, CellTiter-Glo; read-out: ETV6-TRKB IC50
Chain of Ba/F3 ETV6-TRKB (Q16620 32-822 limits assumed, change not shown): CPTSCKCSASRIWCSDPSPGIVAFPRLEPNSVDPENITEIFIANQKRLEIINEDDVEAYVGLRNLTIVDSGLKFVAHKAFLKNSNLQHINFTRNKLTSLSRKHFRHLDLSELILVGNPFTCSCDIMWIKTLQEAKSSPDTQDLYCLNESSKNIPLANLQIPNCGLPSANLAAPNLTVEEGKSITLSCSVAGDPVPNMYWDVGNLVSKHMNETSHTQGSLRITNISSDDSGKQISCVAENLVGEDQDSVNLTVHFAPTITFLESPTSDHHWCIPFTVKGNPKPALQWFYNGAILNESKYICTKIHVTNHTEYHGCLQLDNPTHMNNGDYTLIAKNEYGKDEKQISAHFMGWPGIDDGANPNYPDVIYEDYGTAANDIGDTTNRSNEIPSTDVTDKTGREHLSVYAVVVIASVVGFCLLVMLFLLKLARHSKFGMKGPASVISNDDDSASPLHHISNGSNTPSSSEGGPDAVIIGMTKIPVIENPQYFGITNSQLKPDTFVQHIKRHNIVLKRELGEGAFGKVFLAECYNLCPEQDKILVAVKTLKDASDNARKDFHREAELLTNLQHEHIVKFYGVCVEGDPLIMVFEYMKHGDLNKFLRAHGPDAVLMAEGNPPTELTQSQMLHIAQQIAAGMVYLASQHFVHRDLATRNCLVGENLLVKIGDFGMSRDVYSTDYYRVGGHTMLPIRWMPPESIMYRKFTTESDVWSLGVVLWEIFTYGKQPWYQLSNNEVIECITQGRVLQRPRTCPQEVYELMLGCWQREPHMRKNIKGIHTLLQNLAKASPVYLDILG
Summary of the method: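 Ba/F3 cells retrovirally transduced with ETV6-TRKB and selected for IL-3-independent growth with puromycin were treated with 3-fold compound dilutions for 72 h. Viability read by CellTiter-Glo luminescence; IC50 from percent inhibition by four-parameter logistic fit.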

[3] = target: TRKB-wt (Homo sapiens (Human), UniProt Q16620); assay: Biochemical kinase assay, TRKB-wt; conditions: apparent inhibitory constant, kinase domain, Morrison equation; read-out: TRKB-wt Ki^app
Chain of TRKB-wt (Q16620 538-807): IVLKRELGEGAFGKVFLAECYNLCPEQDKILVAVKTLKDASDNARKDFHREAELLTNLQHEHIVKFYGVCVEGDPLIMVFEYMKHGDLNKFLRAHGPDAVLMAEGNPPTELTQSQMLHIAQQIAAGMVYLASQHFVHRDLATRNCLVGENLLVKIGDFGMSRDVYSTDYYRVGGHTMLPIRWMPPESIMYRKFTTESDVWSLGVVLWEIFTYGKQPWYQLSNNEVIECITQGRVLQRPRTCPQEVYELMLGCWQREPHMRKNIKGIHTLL
Procedure: (§1) First, 250 nL of compound dissolved in DMSO (100-fold of the desired concentration) was dispensed into a 384-well plate. A 12.5 μL substrate solution containing ATP (2 mM) and fluorogenic phosphorylation substrate AQT0101 ([…] for ALK and ROS, AssayQuant) or AQT0104 (26 μM for TRKB, AssayQuant) in buffer (50 mM HEPES pH 7.5, […], 0.5 mM EGTA, 10 mM MgCl2) was added and mixed thoroughly. Then, a 12.5 μL kinase solution containing ALK (1.5 nM, Carna, 08-518), ALK I1171N/D1203N (4 nM, SignalChem, custom-made), ROS1 (0.6 nM, Carma, 08-163), ROS1-G2032R (0.5 nM, SignalChem, R14-121BG), or TRKB-wt (1.5 nM, SignalChem, N17-11G) kinase domains in buffer ([…] pH 7.5, 0.01% Brij-[…], 0.4 mg/mL BSA, 0.5 mM EGTA, and 10 mM MgCl2) was added and mixed thoroughly. The plate was sealed and read by SpectraMax Paradigm at λ=485 nm every 2 minutes for 120 minutes at 30° C. Initial rates of reaction (v) were calculated from the change in fluorescence intensity over time during the initial, linear portion of the reaction. Finally, apparent inhibitory constants (Ki^app) were determined from regression of v and I (inhibitor concentration) to Morrison Equation (E=enzyme concentration): […]
(§2) Compound potency can be interpreted by binning Ki^app values against the targets: bin A for high potency, Ki^app<50 nM; bin B for medium potency, 50 nM≤Ki^app<500 nM; and bin C for low potency, Ki^app≥500 nM. […] “nd” means not determined.

[4] = target: ALK I1171N/D1203N (Homo sapiens (Human), UniProt Q9UM73, D1203N/I1171N); assay: Biochemical kinase assay, ALK I1171N/D1203N; conditions: apparent inhibitory constant, kinase domain, Morrison equation; read-out: ALK-I1171N-D1203N Ki^app
Chain of ALK I1171N/D1203N (Q9UM73 1116-1392 I1171N/D1203N): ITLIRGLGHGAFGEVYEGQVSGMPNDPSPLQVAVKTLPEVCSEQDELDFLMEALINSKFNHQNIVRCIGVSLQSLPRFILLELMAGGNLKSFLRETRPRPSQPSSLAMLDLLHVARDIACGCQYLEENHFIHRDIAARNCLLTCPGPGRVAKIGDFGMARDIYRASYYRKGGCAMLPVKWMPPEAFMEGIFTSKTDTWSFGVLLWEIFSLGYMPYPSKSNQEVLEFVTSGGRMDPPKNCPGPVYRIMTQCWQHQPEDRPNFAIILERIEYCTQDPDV
Procedure: as §1, §2

[5] = target: Ba/F3 EML4-ALK v1 I1171N (Homo sapiens (Human), UniProt Q9HC35+Q9UM73, I1171N); assay: Ba/F3 cell proliferation assay, EML4-ALK v1 I1171N; format: cell-based; conditions: for IC50: Ba/F3 stable cells, 72 hours, CellTiter-Glo; for ETV6-TRKB / EML4-ALK v1 I1171N: TRKB selectivity, ratio of Ba/F3 IC50 values
Chain of Ba/F3 EML4-ALK v1 I1171N (Q9UM73 other isoform, or with tags, fused parts or gaps I1171N): as the sequence (Q9UM73 other isoform, or with tags, fused parts or gaps I1171N/D1203N) above, with N642D counted along it
From the text: Genes encoding EML4-ALK v1 (variant 1), EML4-ALK v1 G1202R, EML4-ALK v1 I1171IN, EML4-ALK v1 D1203N, EML4-ALK v1 I1171N/D1203N, and ETV6-TRKB were synthesized at GeneRay, cloned into the retroviral construct pMSCV-puro (Biovector), and packaged into retroviral particles. The virus was used to infect Ba/F3 cells (RIKEN) at multiplicity of infection=1 for 1 day. Infected cells were rescued in media (RPMI-1640 with 10% fetal bovine serum and 1% streptomycin and penicillin) supplemented with mouse IL-3 (10 ng/mL) for 2 days, and stable cell lines were selected by IL-3 withdrawal and puromycin (0.8 μg/mL) for 7 days. Monoclones were selected by single-cell dilution in IL-3-free medium containing puromycin (0.8 μg/mL). Transformation of desired genes was confirmed by Sanger sequencing and western blot using the following antibodies: ALK (CST #3633) and pan-TRK (Abcam #76291).
Stable cells were plated in a 384-well plate. Test compounds were then added in a 3-fold dilution series and incubated for 72 hours. CellTiter-Glo reagent (Promega) was added. Luminescence was measured on a plate reader. Half-maximal inhibitory concentration (ICso) was calculated from percent inhibition and inhibitor concentration using four-parameter logistic regression. Compound potency can be interpreted by binning IC50 values: bin A for high potency, 0.1 nM IC50<50 nM; bin B for medium potency, 50 nM<IC50<500 nM; and bin C for low potency, IC50>500 nM. […] Exemplary data is given in Table 4 (nd is not determined).
Ba/F3 proliferation is driven by the transduced oncogenes in the same way that cancer cell proliferation in humans is driven by the expression of equivalent oncogenes.
TRKB selectivity was calculated by dividing a compound's TRKB potency by its primary target potency (e.g., ETV6-TRKB IC50/EML4-ALK v1 IC50). Compound selectivity can be interpreted by binning ratio values: bin A for very high selectivity, ratio≥30-fold; bin B for high selectivity, ratio≥10-fold but<30; bin C for moderate selectivity, ratio≥1 but<10; and bin D for low selectivity, ratio<1. […] (nd=not determined).

| SMILES | IC50 [1] | ETV6-TRKB / EML4-ALK v1 I1171N/D1203N [1] | IC50 [2] | Ki [3] | Ki [4] | IC50 [5] | Selectivity for Ba/F3 EML4-ALK v1 I1171N-D1203N IC50 over Ba/F3 ETV6-TRKB IC50 [1] | ETV6-TRKB / EML4-ALK v1 I1171N [5] |
| --- | --- | --- | --- | --- | --- | --- | --- | --- |
| C[C@H]1Oc2cc(cnc2N)-c2c(c(S(C)(=O)=O)nn2CC2CC2)Cc2cn(C)nc2-c2ccc(F)cc21 [Example 2, (R)-3-(cyclopropylmethyl)-16-fluoro-5-mesyl-10-methyl-19-methyl-20-oxa-3,4,10,11,23-pentaazapentacyclo[19.3.1.0^2,6.0^8,12.0^13,18]pentacosa-1(24),2(6),4,8,11,13,15,17,21(25),22-decaen-22-ylamine] | 0.05 to 0.5 µM | C (bin C for moderate selectivity, ratio≥1 but<10) | > 0.5 µM | ≥ 0.5 µM | 0.05 to 0.5 µM |  |  |  |
| C[C@H]1Oc2cc(cnc2N)-c2c(c(C(N)=O)nn2CC2CC2)Cc2cccnc2-c2ccc(F)cc21 [Example 6, (R)-23-amino-3-(cyclopropylmethyl)-17-fluoro-20-methyl-21-oxa-3,4,12,24-tetraazapentacyclo[20.3.1.0^2,^6.0^8,^13.0^14,^19]hexacosa-1(25),2(6),4,8(13),9,11,14,16, 18,22(26),23-undecaene-5-carboxamide] | 0.0001 to 0.05 µM |  | > 0.5 µM | 0.05 to 0.5 µM |  |  |  |  |
| C[C@H]1Oc2cc(cnc2N)-c2c(c(C(=O)N3CCCC3)nn2CC2CC2)Cc2cn(C)nc2-c2ccc(F)cc21 [Example 11, {(R)-22-amino-3-(cyclopropylmethyl)-16-fluoro-10-methyl-19-methyl-20-oxa-3,4,10,11,23-pentaazapentacyclo[19.3.1.0^2,^6.0^8,^12.0^13,^18]pentacosa-1(24),2(6),4,8,11,13,15,17,21(25),22-decaen-5-yl}(1-pyrrolidinyl)methanone] | 0.05 to 0.5 µM | B (bin B for high selectivity, ratio≥10-fold but<30) | > 0.5 µM | 0.05 to 0.5 µM | < 0.05 µM |  |  |  |
| CCN(C)C(=O)c1nn(CC2CC2)c2c1Cc1cn(C)nc1-c1ccc(F)cc1[C@@H](C)Oc1cc-2cnc1N [Example 38, N-ethyl-N-methyl-(R)-22-amino-3-(cyclopropylmethyl)-16-fluoro-10-methyl-19-methyl-20-oxa-3,4,10,11,23-pentaazapentacyclo[19.3.1.0^2,^6.0^8,^12.0^13,^18]pentacosa-1(24),2(6),4,8,11,13,15,17,21(25),22-decaene-5-carboxamide] | 0.0001 to 0.05 µM |  | > 0.5 µM | 0.05 to 0.5 µM |  | 0.0001 to 0.05 µM |  |  |
| Cc1cc2n(n1)-c1c(F)cc(F)cc1[C@@H](C)Oc1cc(cnc1N)-c1c(c(C(=O)N(C)C)nn1CC1CC1)C2 [Example 44, N,N-dimethyl-(R)-22-amino-3-(cyclopropylmethyl)-14,16-difluoro-10,19-dimethyl-20-oxa-3,4,11,12,23-pentaazapentacyclo[19.3.1.0^2,^6.0^8,^12.0^13,^18]pentacosa-1(24),2(6),4,8, 10,13,15,17,21(25),22-decaene-5-carboxamide] | 0.0001 to 0.05 µM |  | > 0.5 µM | 0.05 to 0.5 µM |  |  |  |  |
| CCn1nc(C(=O)N(C)C)c2c1-c1cnc(N)c(c1)O[C@H](C)c1cc(F)ccc1-c1ncccc1C2=O [Example 47, N,N-dimethyl-(R)-23-amino-3-ethyl-17-fluoro-20-methyl-7-oxo-21-oxa-3,4,12,24-tetraazapentacyclo[20.3.1.0^2,^6.0^8,^13.0^14,^19]hexacosa-1(25),2(6),4,8(13),9,11,14,16,18,22(26),23-undecaene-5-carboxamide] | 0.05 to 0.5 µM |  | > 0.5 µM |  | 0.05 to 0.5 µM |  | BB (bin BB for the selectivity with the ratio≥10-fold but<30) |  |
| CCn1ncc2c1-c1cnc(N)c(c1)O[C@H](C)c1cc(F)ccc1-c1ncccc1C2=O [Example 76, (R)-23-amino-3-ethyl-17-fluoro-20-methyl-21-oxa-3,4,12,24-tetraazapentacyclo[20.3.1.0^2,^6.0^8,^13.0^14,^19]hexacosa-1(25),2(6),4,8(13),9,11,14,16,18,22(26),23-undecaen-7-one] | 0.05 to 0.5 µM | C (bin C for moderate selectivity, ratio≥1 but<10) | > 0.5 µM |  | < 0.05 µM | > 0.5 µM | DD (bin DD for the selectivity with the ratio≥1 but<5) | C (bin C for moderate selectivity, ratio≥1 but<10) |
| C[C@H]1Oc2cc(cnc2N)-c2c(n[nH]c2C#N)C(=O)c2cccnc2-c2c(F)cc(F)cc21 [Example 77, (R)-23-amino-15,17-difluoro-20-methyl-7-oxo-21-oxa-4,5,12,24-NH2 tetraazapentacyclo[20.3.1.0^2,6.0^8,13.0^14,19]hexacosa-1(25),2,5,8,10,12,14,16,18,22(26),23-undecaene-3-carbonitrile] | 0.0001 to 0.05 µM | A (bin A for very high selectivity, ratio≥30-fold) | 0.05 to 0.5 µM |  |  | 0.0001 to 0.05 µM |  | B (bin B for high selectivity, ratio≥10-fold but<30) |
| C[C@H]1Oc2cc(cnc2N)-c2c(nn(C)c2C#N)C(=O)c2scnc2-c2c(F)cc(F)cc21 [Example 81, (R)-22-amino-14,16-difluoro-4-methyl-19-methyl-7-oxo-20-oxa-9-thia-4,5,11,23-tetraazapentacyclo[19.3.1.0^2,^6.0^8,^12.0^13,^18]pentacosa-1(24),2,5,8(12),10,13,15,17,21(25),22-decaene-3-carbonitrile] | 0.0001 to 0.05 µM | A (bin A for very high selectivity, ratio≥30-fold) | > 0.5 µM |  |  | 0.0001 to 0.05 µM |  | A (bin A for very high selectivity, ratio≥30-fold) |
| C[C@H]1Oc2nc(cnc2N)-c2c(nn(C)c2C#N)C(=O)c2cccnc2-c2c(F)cc(F)cc21 [Example 82, (R)-23-amino-15,17-difluoro-4-methyl-20-methyl-7-oxo-21-oxa-4,5,12,24,26-pentaazapentacyclo[20.3.1.0^2,6.0^8,13.0^14,19]hexacosa-1(25),2,5,8(13),9,11,14,16,18,22(26),23-undecaene-3-carbonitrile] | 0.0001 to 0.05 µM | A (bin A for very high selectivity, ratio≥30-fold) | 0.05 to 0.5 µM |  |  | 0.0001 to 0.05 µM |  | C (bin C for moderate selectivity, ratio≥1 but<10) |
